Assays:
Type in all cases: biochemical
ENPP1 [1] = biological target: T1, ENPP1 (Homo sapiens, UniProt P22413); test: ENPP1 enzyme assay with AMP-pNP substrate (hydrolysis of ATP analog)
T1 sequence (P22413 1-925): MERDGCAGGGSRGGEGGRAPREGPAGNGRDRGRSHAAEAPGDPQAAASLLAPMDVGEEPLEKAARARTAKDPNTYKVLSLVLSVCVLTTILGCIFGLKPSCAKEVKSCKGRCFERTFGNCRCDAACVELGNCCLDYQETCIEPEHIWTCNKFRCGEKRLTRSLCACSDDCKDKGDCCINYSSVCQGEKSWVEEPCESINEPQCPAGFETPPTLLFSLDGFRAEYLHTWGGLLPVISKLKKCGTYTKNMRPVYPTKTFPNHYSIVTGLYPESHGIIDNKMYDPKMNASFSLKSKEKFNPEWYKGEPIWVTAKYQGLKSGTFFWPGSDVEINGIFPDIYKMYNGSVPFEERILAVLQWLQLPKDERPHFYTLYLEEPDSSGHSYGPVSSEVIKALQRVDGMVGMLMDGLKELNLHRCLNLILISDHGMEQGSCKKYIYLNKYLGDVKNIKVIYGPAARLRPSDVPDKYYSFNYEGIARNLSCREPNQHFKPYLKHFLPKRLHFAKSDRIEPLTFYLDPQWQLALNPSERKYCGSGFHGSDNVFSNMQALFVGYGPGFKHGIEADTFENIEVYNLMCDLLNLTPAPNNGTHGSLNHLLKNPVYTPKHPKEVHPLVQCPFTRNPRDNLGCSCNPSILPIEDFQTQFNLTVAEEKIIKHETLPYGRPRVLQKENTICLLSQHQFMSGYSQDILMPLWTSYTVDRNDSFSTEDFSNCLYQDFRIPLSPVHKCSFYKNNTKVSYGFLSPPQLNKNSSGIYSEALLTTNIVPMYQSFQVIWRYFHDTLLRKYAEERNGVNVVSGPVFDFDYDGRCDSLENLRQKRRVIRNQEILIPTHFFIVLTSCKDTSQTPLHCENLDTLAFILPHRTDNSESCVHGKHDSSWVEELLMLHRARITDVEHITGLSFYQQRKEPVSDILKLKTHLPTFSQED
Method: The ENPP1 assay with AMP-pNP substrate is conducted in a buffer containing 50 mM Tris-HCl (pH 8.5)/ 250 mM NaCl/0.5 mM CaCl2/1 µM ZnCl2/0.1% DMSO. Inhibitors are added at final concentrations ranging between 10 µM and 30 pM depending on the compound. Duplicate wells are run at each inhibitor concentration. The final assay volume is 40 µL and human recombinant ENPP1 is present at 60 ng/well. The assay is initiated by the addition of substrate (300 µM AMP-pNP final concentration), and incubated for 20 minutes at 37° C. […] Each assay plate also includes wells with no enzyme added (MIN OD) and wells with no inhibitor added (MAX OD). The percent inhibition of ENPP1 for each sample is then calculated as: […]
IC50 values of compounds were calculated by entering the percent inhibition values into a sigmoidal variable slope nonlinear regression model in GraphPad Prism® software.

ENPP1 [2] = biological target: T1, ENPP1; test: Indirect quantitation of 2',3'-cGAMP hydrolysis (AMP-Glo Assay kit)
ENPP1 [3] = biological target: T1, ENPP1; test: Substrate selectivity ratio, inhibition of cGAMP hydrolysis versus ATP hydrolysis; conditions: ratio Ki AMP-pNP / Ki cGAMP
Method: The selectivity ratios for inhibition of cGAMP hydrolysis versus ATP hydrolysis were then calculated as follows: […]

[4] = AMP-pNP substrate (ATP analog), Ki from IC50 by Cheng-Prusoff, read-out: ENPP1 Inhibition _AMP-pNP: Ki
[5] = cGAMP substrate, Ki from IC50 by Cheng-Prusoff, read-out: ENPP1 Inhibition -cGAMP: Ki

SMILES | Ki (ENPP1 [1]; [4]) [nM] | Ki (ENPP1 [2]; [5]) [nM] | Substrate Selectivity: Ki_AMP-pNP/Ki_cGAMP (ENPP1 [3]) | Ki (ENPP1 [1]) [nM] | Ki (ENPP1 [2]) [nM]
COc1cc2ncnc(N3CCC(CCC(=O)O)CC3)c2cc1OC [Example 171, 3-(1-(6,7-dimethoxyquinazolin-4-yl)piperidin-4-yl)propanoic acid] | > 1000 | 100 to 1000 | >50.7 |  | 
COc1cc2ncnc(N3CCN(C(=O)CNS(N)(=O)=O)CC3)c2cc1OC [Example 52, N-(2-(4-(6,7-dimethoxyquinazolin-4-yl)piperazin-1-yl)-2-oxoethyl)sulfamide] |  |  | 58.1 | 100 to 1000 | < 100
COc1ccc2c(Sc3ccc(NS(N)(=O)=O)cc3)ccnc2c1 [Example 302, N-(4-((7-methoxyquinolin-4-yl)thio)phenyl)sulfamide] | 100 to 1000 | < 100 | >13.0 |  | 
COc1cc2ncnc(NC(C)c3ccc(NS(N)(=O)=O)cc3)c2cc1OC (stereo in doubt) [Example 253, (R)-N-(4-(1-((6,7-dimethoxyquinazolin-4-yl)amino)ethyl)phenyl)sulfamide] | 100 to 1000 | < 100 | 79.4 |  | 
COc1cc2c(N3CCC(CCNS(N)(=O)=O)CC3)ncnc2cc1F [Example 184, N-(2-(1-(7-fluoro-6-methoxyquinazolin-4-yl)piperidin-4-yl)ethyl)sulfamide] | > 1000 | 100 to 1000 | > 18.0 |  | 
COc1ccc2ncnc(N3CCC(CCNS(N)(=O)=O)CC3)c2c1 [Example 199, N-(2-(1-(6-methoxyquinazolin-4-yl)piperidin-4-yl)ethyl)sulfamide] | 100 to 1000 | < 100 | 33.6 |  | 
COc1cc2nccc(Oc3ccc(S(N)(=O)=O)cc3)c2cn1 [Example 393, 4-((7-methoxy-1,6-naphthyridin-4-yl)oxy)benzenesulfonamide] | 100 to 1000 | < 100 | 51 |  | 
NS(=O)(=O)N1CCc2ccc(-c3ncnc4ccccc34)cc2C1 [Example 150, 7-(quinazolin-4-yl)-3,4-dihydroisoquinoline-2(1H)-sulfonamide] | > 1000 | 100 to 1000 | >158 |  | 
COc1ccc2c(N3CCC(CCNS(N)(=O)=O)CC3)ncnc2c1 [Example 198, N-(2-(1-(7-methoxyquinazolin-4-yl)piperidin-4-yl)ethyl)sulfamide] | 100 to 1000 | < 100 | 39.2 |  | 
COc1ccc2c(NCc3ccc(S(N)(=O)=O)cc3)ncnc2c1 [Example 230, 4-(((7-methoxyquinazolin-4-yl)amino)methyl)benzene sulfonamide] | < 100 | < 100 | 71.2 |  | 
COc1cc2c(N3CCC(CCNS(N)(=O)=O)CC3)c(C#N)cnc2cn1 [Example 216, N-(2-(1-(3-cyano-6-methoxy-1,7-naphthyridin-4-yl)piperidin-4-yl)ethyl)sulfamide] | > 1000 | < 100 | > 72.3 |  | 
COc1ccc2c(NCc3ccc(NS(N)(=O)=O)cc3)ccnc2c1 [Example 267, N-(4-(((7-methoxyquinolin-4-yl)amino)methyl)phenyl)sulfamide] | 100 to 1000 | < 100 | 22.5 |  | 
COc1ccc2c(Oc3ccc4c(c3)CCCN4S(N)(=O)=O)ccnc2c1 [Example 319, 6-((7-methoxyquinolin-4-yl)oxy)-3,4-dihydroquinoline-1(2H)-sulfonamide] | > 1000 | < 100 | >35.9 |  | 
COc1cc2nccc(-c3ccc(CN(C)S(N)(=O)=O)cc3)c2cc1OC [Example 61, N-(4-(6,7-dimethoxyquinolin-4-yl)benzyl)-N-methylsulfamide] | < 100 | < 100 | 23.7 |  | 
COc1cc2ncc(-c3ccc(CNS(N)(=O)=O)cc3)n2cc1OC [Example 266, N-(4-(6,7-dimethoxyimidazo[1,2-a]pyridin-3-yl)benzyl)sulfamide] | 100 to 1000 | < 100 | >5.9 |  | 
COc1ccc2c(-c3ccc(CS(N)(=O)=O)cc3)ccnc2c1 [Example 406, (4-(7-methoxy quinolin-4-yl)phenyl)methane sulfonamide] | > 1000 | 100 to 1000 | >65 |  | 
COc1cc2ncnc(-c3ccc4c(c3)CCN(S(N)(=O)=O)C4)c2cc1OC [Example 121, 6-(6,7-dimethoxyquinazolin-4-yl)-3,4-dihydroisoquinoline-2(1H)-sulfonamide] | > 1000 | < 100 | >61.5 |  | 
COc1ccc2c(Oc3ccc(NS(N)(=O)=O)c(F)c3)ccnc2c1 [Example 297, N-(2-fluoro-4-((7-methoxyquinolin-4-yl)oxy)phenyl)sulfamide] | 100 to 1000 | < 100 | 19.5 |  | 
COc1ccc2c(-c3ccc(NS(N)(=O)=O)cc3)ccnc2c1 [Example 396, N-(4-(7-methoxyquinolin-4-yl)phenyl)sulfamide] | > 1000 | 100 to 1000 | >20 |  | 
COc1cc2ncc(F)c(N3CCC(CCNS(N)(=O)=O)CC3)c2cc1OC [Example 66, N-(2-(1-(3-fluoro-6,7-dimethoxyquinolin-4-yl)piperidin-4-yl)ethyl)sulfamide] | < 100 | < 100 | 35.1 |  | 
N#Cc1cnc2ccccc2c1N1CCC2(CC1)CCN(S(N)(=O)=O)C2 [Example 167, 8-(3-cyanoquinolin-4-yl) -2,8-diazaspiro [4.5] decane-2-sulfonamide] | 100 to 1000 | < 100 | 10.6 |  | 
COc1cc2ncnc(-c3ccc(CCNS(N)(=O)=O)cc3)c2cc1OC [Example 145, N-(4-(6,7-dimethoxyquinazolin-4-yl)phenethyl)sulfamide] | 100 to 1000 | < 100 | 20.7 |  | 
COc1cc2c(N3CCC4(CC3)CCN(S(N)(=O)=O)C4)c(C#N)cnc2cn1 [Example 256, 8-(3-cyano-6-methoxy-1,7-naphthyridin-4-yl)-2,8-diazaspiro [4.5] decane-2-sulfonamide] | > 1000 | < 100 | >118 |  | 
COc1ccc2c(N3CCc4cc(N(C)S(N)(=O)=O)ccc43)ccnc2c1 [Example 418, N-(1-(7-methoxyquinolin-4-yl)indolin-5-yl)-N-methylsulfamide] | 100 to 1000 | < 100 | >40 |  | 
COc1ccc2c(Oc3ccc(NS(N)(=O)=O)cc3)ncnc2n1 [Example 227, N-(4-((7-methoxypyrido[2,3-d]pyrimidin-4-yl)oxy)phenyl)sulfamide] | 100 to 1000 | < 100 | 51.9 |  | 
COc1ccc2c(NCc3ccc(S(N)(=O)=O)cc3)ccnc2c1 [Example 293, 4-(((7-methoxyquinolin-4-yl)amino)methyl)benzenesulfonamide] | < 100 | < 100 | 17.9 |  | 
COc1ccc2ncc(C#N)c(-c3ccc4c(c3)CN(S(N)(=O)=O)CC4)c2c1 [Example 237, 7-(3-cyano-6-methoxyquinolin-4-yl)-3,4-dihydroisoquinoline-2(1H)-sulfonamide] | > 1000 | < 100 | >371 |  | 
COc1ccc2c(Oc3ccc(NS(N)(=O)=O)c(C#N)c3)ccnc2c1 [Example 315, N-(2-cyano-4-((7-methoxyquinolin-4-yl)oxy)phenyl)sulfamide] | > 1000 | < 100 | >49.7 |  | 

Reference: patent US20230183239A1, “ECTONUCLEOTIDE PYROPHOSPHATASE-PHOSPHODIESTERASE 1 (ENPP-1) INHIBITORS AND USES THEREOF” (AbbVie Inc., priority 2017, published 2023)
